Results published in patent US20210395327A1, “Growth Hormone-Releasing Hormone Antagonists and Uses Thereof” (United States Government As Represented By The Department …, priority 2019, published 2021).
Non-standard residues stand in square brackets, D forms with d. Residues, ends and D or L forms follow the SMILES beside them. *: point of attachment. Phenylacetyl(2,3,4,5,6-F5) = O=C(Cc1c(F)c(F)c(F)c(F)c1F)*; Phe(F5) = N[C@@H](Cc1c(F)c(F)c(F)c(F)c1F)C(=O)O; Phe(4-Cl) = N[C@@H](Cc1ccc(Cl)cc1)C(=O)O; hArg = N=C(N)NCCCC[C@H](N)C(=O)O; 12Ado = NCCCCCCCCCCCC(=O)O; Nle = CCCC[C@H](N)C(=O)O; Orn = NCCC[C@H](N)C(=O)O; Abu = CC[C@H](N)C(=O)O; PhAc = O=C(Cc1ccccc1)*

How the values were obtained:
[1] = tested on: ovarian cancer SK-OV-3 xenograft; test: Xenograft tumor growth in nude mice, SK-OV-3; format: in vivo; conditions: Table 4L, Ovarian Ca SK-OV-3, 7 weeks; for % Inhibition: vs control
Protocol: (§1) The peptides' activity was compared with GHRH antagonist MIA-602. All statistical analyzses were performed from comparing GHRA antagonists to non-treated tumor (control).
(§2) Peptides and chemicals. GHRH antagonists MIA-602 and AVR-GHRH antagonists (see Table 2 above) were synthesized by solid phase methods and purified by HPLC. The peptides were dissolved in DMSO and further diluted in 10% 1,2-propanediol. The final concentration of peptides was 50 µg/ml in 10% 1,2-propanediol containing 0.1% of DMSO.
(§3) Cell culture. Human cancer cell lines including pancreatic (PANC-1 and CFPAC-1), lung (HCC827 and H460), stomach (NCI-N87), prostate (PC3), brest (MX-1 and HCC-1806), colorectal (HT-29), and ovarian (SK-OV-3 and OVCAR-3) were obtained from the American Type Culture Collection (ATCC) and cultured at 37° C. in a humidified 95% air/5% CO2 atmosphere in the medium recommended by ATCC.
(§4) Xenograft models of human cancers in nude mice. Female athymic (NCr nu/nu) nude mice, 5- to 6-weeks-old, obtained from the Envigo labs (Tampa, Fla.), were housed in laminar airflow cabinets under pathogen-free conditions with a 12-h light/12-h dark schedule, and were fed autoclaved standard chow and water. To generate mice with xenografted tumors, tumor xenografts were initiated by subcutaneous (s.c.) injection of 107 human cancer cells into female nude mice. After about 4 weeks the resulting tumors were dissected and collected after removing necrosis tissues. The tumors were then cut into particles with size of 3 mm3 and transplanted s.c. by trocar needle into experimental animals. When tumors grew to the size of 50-60 mm3 (by volume), mice were randomized into groups and treated daily for 4-8 weeks by subcutaneous administration of 5 μg of GHRH antagonists MIA-602 or AVR-compounds (2-10 μg as indicated), or vehicle solutions (0.1% DMSO in 10% 1,2-propanediol) respectively. Tumor sizes were measured weekly.
(§5) Statistical analysis. One-way ANOVA followed by Bonferroni comparison were performed. Data are expressed as Mean±SEM. To determine statistical significance between animal groups, two-tailed Student's t-test was conducted. Differences were considered significant when p<0.05.
(§6) Results. […] FIG. 1A-N represents in vivo inhibition of tumor growth during the treatment with GHRH antagonist MIA-602 and selected AVR antagonists in nude mice xenografted with various human tumors including pancreatic cancer PANC-1 (FIG. 1A) and CFPAC-1 (FIG. 1I); lung cancer HCC827 (FIGS. 1B, C) and H460 (FIG. 1H); stomach cancer N87 (FIGS. 1D-F); colon cancer HT-29 (FIG. 1G); breast cancer MX-1 and HCC-1806 (FIGS. 1J, K); ovarian cancer SK-OV-3 and OVACAR-3 (FIGS. 1 L, M) and prostate cancer PC3 (FIG. 1N). See also Table 5.

[2] = tested on: NCI-N87 stomach cancer cells; test: In vitro cell viability (CellTiter 96), N87; format: cell-based, human; conditions: for In vitro relative inhibitory potency in comparison to MIA-602, NCI-N87: Table 3B, 5 μM for 72 H, MIA-602 = 1
Procedure, shortened: (§7)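 Viability by CellTiter 96 aqueous one solution (MTS) after 72 h exposure to antagonist at 5 μM (some at 2 μM), following 24 h starvation in 0.5% FBS. Results given as percentage inhibition relative to MIA602.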

[3] = tested on: stomach cancer N87 xenograft; test: Xenograft tumor growth in nude mice, N87; format: in vivo; conditions: for % Inhibition: vs control
Protocol: as §1, §2, §3
as §4, with “mice were randomized into groups and treated daily for 4-8 weeks by subcutaneous administration” left out
as §5, §6

[4] = tested on: HCC1806 breast cancer cells; test: In vitro cell viability, HCC1806; format: cell-based, human; conditions: for In vitro relative inhibitory potency in comparison to MIA-602, HCC-1806: Table 3B, 5 μM for 72 H, MIA-602 = 1
Procedure, shortened: as §7

[5] = Table 4F, Stomach Ca N87, 4 weeks, 2 μg/day s.c.
[6] = Table 4F, Stomach Ca N87, 4 weeks, 5 μg/day s.c.
[7] = antagonist 5 μM for 72 h, cell proliferation assay, MIA602 = 1
[8] = Table 4D, Stomach Ca N87, 10 weeks, 2 μg/day s.c.
[9] = Table 4D, Stomach Ca N87, 10 weeks, 5 μg/day s.c.
[10] = Table 4E, Stomach Ca N87, 4 weeks, 5 μg/day s.c.

SMILES	Tumor Size (mm3) ([1]; 2.5 μg/day s.c.)	% Inhibition ([1]; 2.5 μg/day s.c.) [%]	Tumor Size (mm3) ([1]; 5 μg/day s.c.)	% Inhibition ([1]; 5 μg/day s.c.) [%]	In vitro relative inhibitory potency in comparison to MIA-602, NCI-N87 [2]	Tumor Growth % [3, 5] [%]	% Inhibition [3, 5] [%]	Tumor Growth % [3, 6] [%]	% Inhibition [3, 6] [%]	In vitro relative inhibitory potency in comparison to MIA-602, HCC-1806 [4]	relative inhibitory potency in comparison to MIA-602, Stomach N87 [2, 7]	Tumor Size (mm^3) [3, 8] [mm^3]	% Inhibition [3, 8] [%]	Tumor Size (mm^3) [3, 9] [mm^3]	% Inhibition [3, 9] [%]	Tumor Growth % [3, 10] [%]	% Inhibition [3, 10] [%]	relative inhibitory potency in comparison to MIA-602, Breast IICC1806 [4, 7]
CCCC[C@H](NC(=O)[C@@H](NC(=O)[C@H](CC(=O)O)NC(=O)[C@H](CCC(N)=O)NC(=O)[C@H](CC(C)C)NC(=O)[C@H](CC(C)C)NC(=O)[C@H](CCCCN)NC(=O)[C@H](CCCNC(=N)N)NC(=O)[C@H](C)NC(=O)[C@H](CO)NC(=O)[C@H](CC(C)C)NC(=O)[C@H](CCC(N)=O)NC(=O)[C@H](CC)NC(=O)[C@H](CC(C)C)NC(=O)[C@@H](NC(=O)[C@H](CCCCN)NC(=O)[C@H](CCCNC(=N)N)NC(=O)[C@H](Cc1c(F)c(F)c(F)c(F)c1F)NC(=O)[C@H](CCCCNC(=N)N)NC(=O)[C@H](C)NC(=O)[C@@H](NC(=O)[C@H](Cc1ccc(Cl)cc1)NC(=O)[C@@H](NC(=O)[C@H](C)NC(=O)[C@H](CC(=O)O)NC(=O)[C@@H](CCCNC(=N)N)NC(=O)[C@H](Cc1ccc(O)cc1)NC(=O)CCCCCCCCCCCNC(=O)Cc1c(F)c(F)c(F)c(F)c1F)[C@@H](C)CC)[C@@H](C)O)C(C)C)[C@@H](C)CC)C(=O)N[C@H](CCCNC(=N)N)C(=O)N[C@@H](CCCCNC(=N)N)C(=O)NCCCCCCCCCCCC(N)=O [AVR-353, 5FPhAC-Ada-Tyr-DArg-Asp-Ala-Ile-Cpa-Thr-Ala-Har-5FPhe-Arg-Lys-Val-Leu-Abu-Gln-Leu-Ser-Ala-Arg-Lys-Leu-Leu-Gln-Asp-Ile-Nle-DArg-Har-Ada-NH2] ({Phenylacetyl(2,3,4,5,6-F5)-12Ado}-Y[dR]DAI[Phe(4-Cl)]TA[hArg][Phe(F5)]RKVL[Abu]QLSARKLLQDI[Nle][dR][hArg][12Ado]-NH2)	1056.0	19.1	910.7	30.9	3.404	433.70	51.4	312.20	65.0	9.396	–	–	–	–	–	–	–	–
CCCC[C@H](NC(=O)[C@@H](NC(=O)[C@H](CC(=O)O)NC(=O)[C@H](CCC(N)=O)NC(=O)[C@H](CC(C)C)NC(=O)[C@H](CC(C)C)NC(=O)[C@H](CCCN)NC(=O)[C@H](Cc1c[nH]cn1)NC(=O)[C@H](C)NC(=O)[C@H](CO)NC(=O)[C@H](CC(C)C)NC(=O)[C@H](CCC(N)=O)NC(=O)[C@H](CC)NC(=O)[C@H](CC(C)C)NC(=O)[C@@H](NC(=O)[C@H](CCCN)NC(=O)[C@H](Cc1c[nH]cn1)NC(=O)[C@H](Cc1ccc(OC)cc1)NC(=O)[C@H](CCCCNC(=N)N)NC(=O)[C@H](C)NC(=O)[C@@H](NC(=O)[C@H](Cc1c(F)c(F)c(F)c(F)c1F)NC(=O)[C@@H](NC(=O)[C@H](C)NC(=O)[C@H](CC(=O)O)NC(=O)[C@@H](CCCNC(=N)N)NC(=O)[C@H](Cc1ccc(O)cc1)NC(=O)CCCCCCCCCCCNC(=O)Cc1ccccc1)[C@@H](C)CC)[C@@H](C)O)C(C)C)[C@@H](C)CC)C(=O)N[C@H](CCCNC(=N)N)C(=O)N[C@@H](CCCCNC(=N)N)C(N)=O [MIA-602, PhAC-Ada, Tyr D-Arg, Asp, Ala, Ile, 5FPhe, Thr, Ala, Har, Tyr(Me), His, Orn, Val, Leu, Abu, Gin, Leu, Ser, Ala, His, Om, Leu, Leu, Gin, Asp, Ile; Nle, D-Arg, Har NH2, reference compound] ({PhAc-12Ado}-Y[dR]DAI[Phe(F5)]TA[hArg]Y(Me)H[Orn]VL[Abu]QLSAH[Orn]LLQDI[Nle][dR][hArg]-NH2)	–	–	810.1	38.0	1	–	–	427.20	52.1	1	1	1065.00	13.0	767.00	37.3	427.20	52.1	1
